Assay results published in patent US4873245A, “Isolation and structural elucidation of cephalostatins 1-4” (Arizona Board of Regents, priority 1988, dated 1989).
Values after ≈ are worked out from the molar mass of the structure shown. Read-outs that look alike come from different tables or passages of the source.

Legend:
[1] = system: P388 lymphocytic leukemia cell line; assay: PS in vitro: growth inhibition of P388 lymphocytic leukemia cell line, standard N.C.I. protocol; type: cell-based, murine
From the text: Cephalostatin 1 was placed against the P388 lymphocytic leukemia cell line using standard National Cancer Institute ("N.C.I.") protocol with the following results:
Cephalostatin 2 was placed against the P388 lymphocytic leukemia cell line using standard National Cancer Institute ("N.C.I.") protocol with the following results:
Cephalostatin 3 was placed against the P388 lymphocytic leukemia cell line using standard National Cancer Institute ("N.C.I.") protocol with the following results:
Cephalostatin 4 was placed against the P388 lymphocytic leukemia cell line using standard National Cancer Institute ("N.C.I.") protocol with the following results: […]

[2] = system: murine P388 lymphocytic leukemia; assay: U.S. National Cancer Institute's murine P388 lymphocytic leukemia (PS system), life extension of host; type: in vivo; details: for activity against murine P388 lymphocytic leukemia (PS system), in words: mouse, in vivo

Compound | ED50 (PS cell line) [1] | Life Extension ([2]; 40 μg/Kg host body weight) | activity against murine P388 lymphocytic leukemia (PS system), in words [2] | ED50 (PS cell line) ([1]; listed as cephalostatin 4) | Life Extension ([2]; 100 μg/Kg host body weight)
C[C@@H]1[C@]2(O[C@H]3C=C4[C@@H]5CC[C@H]6Cc7nc8c(nc7C[C@]6(C)[C@H]5C[C@@H](O)[C@]4(C)[C@]31O)C[C@@H]1CC[C@H]3C4=CC[C@@H]5[C@H](C)[C@@]6(OC[C@]45C(=O)C[C@@H]3[C@@]1(C)C8)OC(C)(C)C[C@H]6O)O[C@](C)(CO)C[C@H]2O [Cephalostatin 1] | 10^-7 to 10^-9 μg/ml | 31% | confirmed active level |  | 
C[C@@H]1[C@]2(O[C@H]3C=C4[C@@H]5CC[C@H]6Cc7nc8c(nc7C[C@]6(C)[C@H]5C[C@@H](O)[C@]4(C)[C@]31O)C[C@@H]1CC[C@H]3C4=CC[C@@H]5[C@H](C)[C@@]6(OC[C@]45C(=O)C[C@]3(O)[C@@]1(C)C8)OC(C)(C)C[C@H]6O)O[C@](C)(CO)C[C@H]2O [Cephalostatin 2] | 10^-7 to 10^-9 μg/ml | 35% | confirmed active level |  | 
C[C@@H]1[C@]2(O[C@H]3C=C4[C@@H]5CC[C@H]6Cc7nc8c(nc7C[C@]6(C)[C@H]5C[C@@H](O)[C@]4(C)[C@]31O)C[C@@H]1CC[C@H]3C4=CC[C@@H]5[C@H](C)[C@@]6(OC[C@]45C(=O)C[C@]3(O)[C@@]1(C)C8)OC(C)(C)[C@@H](C)[C@H]6O)O[C@](C)(CO)C[C@H]2O [Cephalostatin 3] | 10^-7 to 10^-9 μg/ml | 30% | confirmed active level |  | 
C[C@@H]1[C@]2(O[C@H]3C=C4[C@@H]5CC[C@H]6Cc7nc8c(nc7C[C@]6(C)[C@H]5C[C@@H](O)[C@]4(C)[C@]31O)C[C@@H]1CC[C@H]3[C@@]45O[C@@H]4C[C@@H]4[C@H](C)[C@@]6(OC[C@@]45C(=O)C[C@]3(O)[C@@]1(C)C8)OC(C)(C)C[C@H]6O)O[C@](C)(CO)C[C@H]2O [Cephalostatin 4] | 0.00055 µg/mL (≈ 0.583 nM) |  | confirmed active level | 10^-7 to 10^-9 μg/ml | 25%
